What all share (test): NCI anticancer screen, dose series, 48 h
Assay [1] has as its system SN12C renal.
Assay [2] concerns M14 melanoma.
Assay [3] has as its system K-562 leukemia.
Assay [4] relates to HT29 colon.
For assay [5], the system named is CAKI-1 renal.
Assay [6] has as its system SK-OV-3 ovarian.
Assay [7] concerns 786-0 renal.
Assay [8] deals with NCI-H522 lung.
In assay [9] the test system is HOP-92 NSCLC.
The subject of assay [10] is SR leukemia.

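Values below derive from 48-hour exposures of cells grown in 96-well plates, with endpoints linearly interpolated between the two concentrations bracketing the appropriate inhibition level. GI50: concentration for 50% inhibition of growth. TGI marks complete inhibition of growth.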

As for `Cc1nc2c(cc1C(=O)NN)c(=O)n(C)c(=O)n2C`, the TGI in [1], in assay [2], in assay [3], in assay [4], in [5] and in assay [6] was more than 100 µM throughout. Moreover, in [7], the TGI is more than 100 µM.

For the compound `O=C(NCC1Nc2ccncc2S(=O)(=O)N1)c1ccc(Br)cc1` (centres undefined), the TGI is more than 100 µM in [1]; more than 100 µM in [8]; 90.8 µM in [2]; more than 100 µM in assay [3]; more than 100 µM in assay [4]; more than 100 µM in assay [5]. Further, the TGI in assay [9], in [6] and in assay [7] was more than 100 µM in each case.

In the case of `CC/C(Cl)=N\OC(=O)Nc1ccc(OC)cc1`, the TGI in assay [1] is 11.4 µM; in assay [8] it was 2.18 µM; in [2] it was 9.77 µM; in [3], more than 100 µM; in assay [4], 33.8 µM; in assay [5] it was 3.07 µM. The figures for the TGI in assay [9], in assay [6] and in [7] were 5.98 µM, 31.7 µM and 3.24 µM, respectively.

In the case of `Cc1cn(C2CC(O)C(CO)C2C)c(=O)[nH]c1=O` (centres undefined), the TGI in assay [1], in [8], in assay [2], in [3], in assay [4] and in [9] was more than 100 µM in each case. The TGI in [6] is more than 100 µM.

Turning to `O=[N+]([O-])c1ccc2c(c1)nc(Cc1ccccc1)n2C[C@@H]1CCCN2CCCCC12` (some centres undefined), the TGI was more than 100 µM in assay [1]; 80 µM in assay [8]; 33.1 µM in assay [2]; 49.1 µM in assay [3]; 49.2 µM in [4]; more than 100 µM in assay [5]. Moreover, the TGI in assay [9] is more than 100 µM; in assay [6], more than 100 µM; in assay [7], 47.6 µM.

Take `O=S(=O)(c1cc(Cl)ccc1Cl)N1CCN(S(=O)(=O)c2cc(Cl)ccc2Cl)CC1`: the TGI in [1], in assay [8], in assay [2], in assay [3], in assay [4] and in assay [5] was more than 100 µM in each case. Further, the TGI in assay [9] and in assay [7] was more than 100 µM throughout.

As to `C(=N\Nc1ncc(-c2cc3cc4c(cc3o2)OCO4)s1)/c1c[nH]c2ccccc12`, the GI50 in [1] was 0.374 µM; in assay [2], 3.34 µM; in assay [3], 0.382 µM; in assay [4] it was 3.32 µM; in [5], 1.18 µM; in assay [9] it was 1.49 µM. Further, the GI50 in [10] was 0.912 µM. In addition, the TGI in assay [1] is 3.98 µM; in [2], 12.7 µM; in assay [3], more than 100 µM; in assay [4], more than 100 µM; in [5], 3.21 µM; in assay [9], 5.34 µM. This compound also had a TGI in [10] of more than 100 µM.

`CCCC(Sc1nc(N)nc2nc[nH]c12)C(=O)O` (centres undefined): the TGI in assay [1], in assay [8], in assay [2], in assay [3], in assay [4] and in assay [5] was more than 100 µM throughout. For the same compound, the TGI in assay [9], in assay [6] and in assay [7] was more than 100 µM each time.

`Oc1nc(N/N=C/c2c[nH]c3ccccc23)[nH]c1/C=C1\C=Nc2ccccc21`: the TGI is more than 100 µM in assay [1]; 24.2 µM in [8]; 75.9 µM in assay [2]; 27.8 µM in [3]; 47.5 µM in assay [4]; more than 100 µM in assay [5]. Moreover, the TGI in [9] was 36.9 µM; in assay [6], more than 100 µM; in assay [7], 37 µM.

As to `CCN1CCN(C(=O)[C@]23CC[C@@H](C)[C@H](C)[C@@H]2C2=CC[C@@H]4[C@@]5(C)C/C(=C/c6cccnc6)C(=O)C(C)(C)[C@@H]5CC[C@@]4(C)[C@]2(C)CC3)CC1`, the GI50 in assay [1] is 1.61 µM; in [3] it was 2.63 µM; in assay [4], 1.93 µM; in [5], 2.12 µM; in assay [9], 1.57 µM; in [10], 2.38 µM. In addition, in assay [6], the GI50 was 2.7 µM. The TGI in assay [1] turned out to be 3.01 µM; in assay [3] it was 7.44 µM; in assay [4] it was 5.36 µM; in assay [5], 11.8 µM; in assay [9] it was 5.73 µM; in [10], 7.09 µM. This compound also gave a TGI in [6] of 9.2 µM.

As for `CN(C)CCCn1c(Cc2ccccc2)nc2cc(C(F)(F)F)ccc21`, the TGI is more than 100 µM in assay [1]; 48.3 µM in [8]; 30.4 µM in [2]; 47 µM in assay [3]; 42.4 µM in assay [4]; 51.1 µM in assay [5]. Besides, the TGI in assay [9] was determined as 92 µM; in assay [6] it was 63.2 µM; in assay [7] it was 33.9 µM.

With `C[C@]12CC[C@H]3[C@@H](CCC4=CC(=O)C=C[C@@]43O)[C@@H]1CCC2=O`, the TGI in [1], in [2], in assay [3], in assay [5], in assay [9] and in [10] was more than 100 µM throughout. This compound had a TGI in assay [7] of more than 100 µM.

With `O=C(O)CC(NC(=O)Nc1ccc([N+](=O)[O-])cc1)C(=O)Nc1ccc([N+](=O)[O-])cc1` (centres undefined), the TGI in assay [8], in [2], in assay [3], in [4], in assay [5] and in [6] was more than 100 µM throughout. The TGI in [7] is more than 100 µM.

For the compound `CC(=O)NC1(C)CCC(C(C)(C)NC(C)=O)CC1` (centres undefined), the TGI in assay [1], in assay [2], in assay [3], in assay [4], in [5] and in assay [10] was more than 100 µM throughout. Besides, the TGI in assay [6] and in [7] was more than 100 µM throughout.

`COC(c1ccsc1)C(C#N)(C#N)N=Cc1ccsc1` (centres undefined): the TGI in assay [1] amounted to 30.8 µM; in assay [8] it was 21.3 µM; in [2], 33.7 µM; in assay [3], 49.3 µM; in assay [4], 25.1 µM; in assay [5], 19.2 µM. Moreover, the TGI in assay [9] stood at 27.1 µM; in assay [6], 59.1 µM; in [7], 37.9 µM.

`Cc1cc(S(=O)(=O)Nc2nc3ccsc3c(=O)n2N)c(S)cc1Cl`: the TGI in assay [1], in assay [8], in assay [2], in assay [3], in assay [4] and in assay [5] was more than 100 µM throughout. For the same compound, the TGI in [6] and in assay [7] was more than 100 µM in each case.

For `COc1cc2c(cc1OCCCC(=O)Nc1cc(C(=O)Nc3cc(C(=O)Nc4cc(C(=O)NCCCN(C)C)n(C)c4)n(C)c3)n(C)c1)N=C[C@@H]1CCCN1C2=O`, the TGI in assay [1] was 2.63 µM; in assay [8], 0.427 µM; in assay [2], 3.11 µM; in assay [3], more than 100 µM; in [4], 4.1 µM; in assay [5], 1.26 µM. Moreover, the TGI in assay [9] came to 3.38 µM; in assay [6], 28.4 µM; in assay [7], 2.37 µM.

`c1ccc2c(c1)c1c(n2CCOCCN2CCCCC2)CCCC1`: the TGI was determined as 27.4 µM in assay [1]; 25.7 µM in [2]; 26.7 µM in [3]; 24.6 µM in [4]; 22.3 µM in assay [9]; 36 µM in assay [10]. Moreover, the figures for the TGI in assay [6] and in assay [7] were 34.9 µM and 26.4 µM, respectively.

Take `CCOC(=O)C1=CN=C2C(=O)N(c3ccccc3)N(C)C2(C)C1=N` (centres undefined): the TGI in [1], in assay [8], in [2], in [3], in [5] and in assay [9] was more than 100 µM throughout. Also, the TGI in assay [6] and in assay [7] was more than 100 µM each time.

In the case of `CCNc1nc(N)c(C(=O)c2ccc(Cl)cc2)s1`, the TGI in assay [1], in assay [2], in assay [3], in [4], in assay [9] and in assay [6] was more than 100 µM throughout. The TGI in [7] was more than 100 µM.

Consider `CC(C)OC(=O)c1ccc(NCC2=CC(=O)C=CC2=O)cc1Cl`, for which the TGI in [1] is 44.3 µM; in assay [2], more than 100 µM; in assay [4] it was more than 62.5 µM; in [5] it was 6.19 µM; in [9] it was 14.4 µM; in [10] it was 8.22 µM. Further, the figures for the TGI in assay [6] and in [7] were more than 100 µM and more than 48.3 µM, respectively.

Consider `O=C1C=Cc2c(Cl)sc(Cl)c21`, for which the TGI in [1] is more than 100 µM; in assay [2] it was 3.99 µM; in [3], 3.21 µM; in assay [4], 3.34 µM; in assay [5] it was 4.57 µM; in assay [6], 28.5 µM. Also, in assay [7], the TGI worked out at 2.44 µM.

As for `Cc1oc2nc1C(=O)NCc1nc(cs1)C(=O)N[C@H](C(C)C)c1nc(cs1)C(=O)N[C@H]2C`, the TGI in [1] was more than 100 µM; in [8] it was 87.4 µM; in assay [2], more than 100 µM; in assay [3], more than 100 µM; in assay [4], more than 100 µM; in [5], more than 100 µM. Besides, the TGI in [9], in [6] and in assay [7] was more than 100 µM each time.

Take `CSc1nc2ccccc2c(=O)n1/N=C1\C(=O)N(CN2CCOCC2)c2ccc(Cl)cc21`: the TGI in assay [1] was more than 100 µM; in [8], 89.8 µM; in [2], more than 100 µM; in assay [3] it was more than 100 µM; in assay [4], more than 100 µM; in assay [5], more than 100 µM. Further, the TGI in assay [9], in assay [6] and in assay [7] was more than 100 µM throughout.

As for `O=[N+]([O-])C(/C(Cl)=C(/Cl)N1CCOCC1)=C1\NCCO1`, the TGI in assay [1], in assay [2], in assay [4], in assay [5], in [6] and in [7] was more than 100 µM in each case.

Take `CC(=O)Nc1ccc2c(C(=O)O)c(C)c(=O)[nH]c2n1`: the TGI in assay [1], in assay [8], in [2], in [3], in [4] and in assay [5] was more than 100 µM each time. The TGI in [9] is 56 µM; in [6] it was more than 100 µM; in assay [7] it was more than 100 µM.

As for `CN(C)N=Nc1ccc([N+](=O)[O-])cc1C(N)=O`, the TGI in [1], in [8], in [3], in assay [4], in assay [5] and in assay [9] was more than 100 µM each time. In assay [6], this compound came in with a TGI of more than 100 µM.

Regarding `Cc1c(CNc2ccc(Cl)c(C(=O)NC(CC(=O)O)C(=O)O)c2)ccc2nc(N)nc(N)c12` (centres undefined), the TGI in assay [1] was more than 1000 µM; in assay [8], 682 µM; in assay [2], more than 1000 µM; in assay [3], more than 1000 µM; in assay [4], more than 1000 µM; in assay [5] it was more than 1000 µM. Further, the TGI in [9], in assay [6] and in assay [7] was more than 1000 µM each time. The GI50 in [8] was 211 µM; in assay [5] it was 0.617 µM; in assay [9] it was 288 µM; in assay [6], 800 µM.

`CCSc1ncnc2c(C3OC(CO)C(O)C3O)nsc12` (centres undefined): the TGI in assay [1], in assay [2], in assay [3], in assay [4], in assay [5] and in [9] was more than 100 µM throughout. Moreover, the TGI in [10] and in [6] was more than 100 µM in each case.

With `COc1ccc(-c2oc3ccc(C)cc3c(=O)c2O)cc1`, the TGI in [1], in assay [8], in [2], in assay [4], in assay [5] and in assay [9] was more than 100 µM throughout. Also, the TGI in [6] and in assay [7] was more than 100 µM throughout.

These data come from PubChem BioAssay (NCI).
